Patent US5006343A, “Pulmonary administration of pharmaceutically active substances” (priority 1988, dated 1991)

What was measured:
[1] = given systemically; cited from earlier work
[2] = In vivo anesthetized rat model, radiolabelled Vitamin E in serum, 24 hour timecourse
Procedure: (§1) The in vivo assay employed in examples 2 and 3 was performed by the following general procedure. The compositions were administered to the lungs of anesthetized adult Sprague-Dawley rats by endotracheal cannula. At various times after administration of the compositions, the animals were sacrificed by overdosing with anesthetics. The lungs and serum were obtained from each rat for analysis. The lung tissue was minced and extracted with 2:1 chloroform:methanol. The serum was extracted with 2:1 chloroform:methanol. The serum was sampled to get an indication of the amount of pharmaceutically active substance being transported into general circulation.
(§2) Liposomes were prepared as described in section A with the addition of ^3 H-Vitamin E in the lipid mixture before evaporation. The following weight ratios of lipid and Vitamin E were used to prepare the liposomes:
(§3) DPPC:PC:PG:Cholesterol:Vitamin E [drawing 1] The chloroform was evaporated from the lipid/Vitamin E mixture by rotary evaporation. The dried lipid/Vitamin E mixture was rehydrated in MEM-Krebs to a concentration of 87 μg Vitamin E/ml. Alveolar surfactant protein SP-A was added to the liposome mixture to a concentration of 100 μg/ml.
(§4) The liposomes containing Vitamin E prepared as in Example I above were tested in vivo by administration to rats according to the procedure outlined above in section C. […]

[3] = In vivo anesthetized rat model, radiolabelled Vitamin E in lung, 24 hour timecourse
Procedure: as §1, §2, §3, §4

[4] = In vivo anesthetized rat model, lung incorporation of radiolabelled Vitamin E, 60 minute timecourse; design: species or system Sprague-Dawley rats; conditions: result in words
Procedure: The serum was extracted with 2:1 chloroform:methanol.
The animals were sacrificed at 0 and 60 minutes and the lungs were tested for incorporation of radiolabelled Vitamin E as described above, with the following results: […]

type II cells [5] = assay: In vitro uptake of Vitamin E liposomes by freshly isolated type II cells; assay type: cell-based, male Sprague-Dawley rats; conditions: result in words
Procedure: (§5) The in vitro assay employed in examples 1 and 4 was performed by the following general procedure. Freshly isolated type II cells were prepared by the method of Dobbs, et al., Am. Rev. Respir. Sid. (1986) 134:141-145. Briefly, lungs of specific-pathogen-free male Sprague-Dawley rats weighing 160-180 g (Bantin-Kingman, Fremont, CA) were digested with elastase (Cooper Biomedical, Malverne, PA). The minced digest was filtered through a series of nylon meshes and cells were collected by centrifugation. The cells were then plated on IgG-coated plates and the non-type II cells, which were primarily macrophages and lymophocytes, adhered to the plate over a period of one hour at 37° C. in a 10% CO2 /air incubator. The non-adherent cells were removed by gentle panning and were centrifuged at 130×g for 8 minutes. This cell pellet contained 85±1% type II cells. The viability of the cells as determined by erythrosin B exclusion averaged 97±1%.
(§6) 2.5×10^6 freshly isolated type II cells were suspended in 1 ml of MEM-Krebs. The concentration of calcium was […]. […] Zero time values were determined by centrifugation and washing of the cells immediately after addition of liposomes. […] The final cell pellet was resuspended in 0.5 ml of MEM-Krebs; 0.3 ml was analyzed for radioactivity in a Beckman LS-75000 scintillation counter. […]

type II cells [6] = assay: In vitro uptake of 6-carboxy-fluorscein liposomes by freshly isolated type II cells; assay type: cell-based, male Sprague-Dawley rats; conditions: result in words
Procedure: as §5, §6

type II cells [7] = conditions: result in words; cited from earlier work
[8] = ASP activity (in vivo assay of Robertson, or in vitro surface tension assay); conditions: in combination as well as independently; result in words
Procedure: In this assay, the sample to be assessed is administered through an endotracheal tube to fetal rabbits or lambs delivered prematurely by Caesarian section. (These "preemies" lack their own alveolar surfactant, and are supported on a ventilator.) Measurements of lung Compliance, blood gases and ventilator pressure provide indices of activity.
Preliminary assessment of activity may also be made by an in vitro assay, for example that of Kihg, R. J., et al, Am J Physiol (1972) 223:715-726, or that illustrated below of Hawgood, et al, which utilizes a straightforward measurement of surface tension at an air-water interface when the protein is mixed with a phospholipid vesicle preparation. […] The ASP activity can be used to enhance pulmonary administration of pharmaceutically active substances.

[9] = 24 hour timecourse, result in words

## N=C(N)c1ccc(OCCCCCOc2ccc(C(=N)N)cc2)cc1 [Pentamidine isethionate, pentamidine isethionate]
[1]
  toxicity: quite toxic if given systemically

## Vitamin E [reference compound]
[2]; rat, in vivo
  serum radiolabelled Vitamin E, with vs. without SP-A: The same non-specific effect is also seen in the serum
[3]; rat, in vivo
  amount of radiolabelled Vitamin E in the lung, with vs. without SP-A: comparable in experimental and control animals

## alveolar surfactant protein SP-A: relatively high molecular weight (of the order of 32 kD) apoprotein associated with the lung surfactant complex; sequence of FIG. 1
[4]
  effect on transport of the liposomes containing Vitamin E to lung tissue: stimulates the transport of the liposomes containing Vitamin E to lung tissue in a rapid fashion
Type II cells [5]
  effect on uptake of liposomes containing Vitamin E: stimulates the uptake
Type II cells [6]
  effect on uptake of liposomes containing 6-carboxy-fluorscein: stimulates the uptake
Type II cells [7]
  cell specificity of effects: seem specific to type II cells and macrophages
[2]; [9]
  effect on serum levels of radiolabelled vitamin E: enhances serum levels of radiolabelled vitamin E
[3]; [9]
  effect on transport to the lung: enhances transport to the lung
[8]
  ASP activity: show ASP activity in combination as well as independently

B1: SP-B: the larger of the two hydrophobic proteins, about 18 kD on gels under non-reducing conditions; sequence of FIG. 2 (protein, UniProt P07988 201-279, looked up)
Pulmonary …: FPIPLPYCWLCRALIKRIQAMIPKGALAVAVAQVCRVVPLVAGGICQCLAERYSVILLDTLLGRMLPQLVCRLVLRCSM
modifications: Pulmonary surfactant-associated protein B
[8]
  ASP activity: show ASP activity in combination as well as independently
